Data published in patent US20130012473A1, “COMBINED USE OF PHOSPHOLIPID AND SULFATE GROUPS-CARRYING POLYSACCHARIDES FOR INHIBITING METASTATIC SPREAD” (KTB TUMORFORSCHUNGSGESELLSCHAFT MBH, priority 2010, published 2013).

How the values were obtained:
Assay type in all cases: cell-based, mouse
VCAM-1 Fc chimera = assay: Flow cytometry, binding of soluble VCAM-1 Fc chimera; details: repeatedly incubated with 450 μM LysoPC for 13 days
Procedure: FIG. 3: Impact of exogenous LysoPC on the surface expression of VLA-4 or VCAM-1- and P-selectin-ligands. (A) Surface expression of VLA-4 on B16.F10 cells treated with 450 μM LysoPC for 13 days was controlled by flow cytometric analysis. […] FACS histograms (A-C) show one representative of three independent experiments. In all experiments cells only incubated with the respective FITC-conjugated detection antibody served as control.

B16.F10 cells [1] = assay: LysoPC-mediated toxicity, cell viability by BrdU assay
Procedure: BrdU proliferation assay: Proliferation and viability were determined by BrdU and WST-1 assay (Roche Diagnostics GmbH, Penzberg, Germany) according to the manufacturer's instructions.
LysoPC was toxic towards B16.F10 cells (p<0.001) at physiological concentrations (≧150 μM) in culture medium (DMEM plus 10% FCS). Thus, different amounts of BSA were added to reduce the concentration of cellular assessable LysoPC (monomolecular and micellar dissolved) and to therefore reduce LysoPC toxicity. Viability of the tumor cells was determined by BrdU assay and adding 10 mg BSA/ml, reduced cell viability was evident above 300 μM LysoPC. Using 20 mg/ml, reduced cell viability was evident above 450 μM LysoPC. Thus, to avoid toxicity of exogenous LysoPC (150 μM to 900 μM) towards the tumor cells during the LysoPC-removal-assay (FIG. 1), addition of 20 mg-40 mg BSA/ml DMEM was essential.

B16.F10 cells [2] = assay: SACED cell migration assay on fibronectin; details: 450 μM LysoPC, fibronectin layers
Procedure: Quantification of cell motility: Cell migration of B16.F10 cells cultivated on fibronectin (Sigma-Aldrich Chemie) covered dishes was determined with or without LysoPC. […] (Nikon, Dusseldorf, Germany) and an incubation chamber for constant temperature, applying NIS Elements AR 2.30 software and a camera (COOL-1300I; Vosskuhler GmbH, Germany)
Lamella dynamics and cell migration velocity were analyzed by the computer-assisted stroboscopic analysis of cell dynamics (SACED). At least 15 individual cells, incubated with or without LysoPC, were monitored over a period of 10 min by capturing digital images every 2 s. Subsequently, eight areas of interest were marked on each image by lines that crossed the cell lamella. The resulting 1 pixel wide areas were cut and lined up in time space plots that allowed the quantification of relevant motility data (Hinz, B. et al., Exp. Cell. Res. 251:234-243 (1999)).

B16.F10 melanoma cells = assay: Removal of exogenous LysoPC from the medium (PC/LysoPC and free choline assays); details: in absence of the cells
From the text: Cell culture and LysoPC feeding: Mouse melanoma cell line B16.F10 (ATCC, CRL-6475) was passaged in vitro in DMEM as described before (Fritzsche, J. et al., Thromb. Haemost. 100:1166-1175 (2008)). Cells were routinely (monthly) tested to be negative of mycoplasms, their morphological appearance observed by microscopic means and examined for the expression of adhesion receptors and ligands by flow cytometry. LysoPC removal (1-Heptadecanoyl-2-hydroxy-sn-glycero-3-phosphocholine, (C17:0; HEP-LysoPC), Avanti Polar Lipids, Inc., or 1-Hexadecanoyl-sn-glycero-3-phosphocholine, (C16:0; HEX-LysoPC), Sigma, Taufkirchen, Germany was determined using 1×10^5 cells in 24-well tissue culture plates (Greiner BioOne, Frickenhausen, Germany). Non-cytotoxic LysoPC/BSA DMEM-solutions (FIG. 7 A) were prepared by adding 20-40 mg/ml bovine serum albumine (BSA, PAA Laboratories GmbH, Cölbe, Germany). Cell culture supernatants were collected from triplicates of LysoPC treated and untreated control wells. Cells were removed from tissue culture plates using trypsin/EDTA. […]
Determination of LysoPC concentration: LysoPC concentration was determined by an enzymatic PL (PC/LysoPC) assay containing phospholipase D and choline oxidase (mti diagnostics GmbH, Idstein, Germany). […]
B, C and D) Colorimetric assays for the quantification of LysoPC removal from the supernatant of B16.F10. […]

Q: How did the “functionality of VLA-4 to interact with soluble VCAM-1-Fc chimera” value (VCAM-1 Fc chimera) turn out when `CCCCCCCCCCCCCCCCC(=O)OC[C@@H](O)COP(=O)([O-])OCC[N+](C)(C)C` [LysoPC] was run?
A: only slightly impaired

Q: And the “LysoPC concentration with reduced cell viability” value (B16.F10 cells [1]; 10 mg BSA/ml added)?
A: above 300 μM

Q: What about the “LysoPC concentration with reduced cell viability” value (B16.F10 cells [1]; 20 mg/ml BSA added) of the same molecule?
A: above 450 μM

Q: And the “toxic LysoPC concentration” value (B16.F10 cells [1]; culture medium DMEM plus 10% FCS, no added BSA, p<0.001)?
A: ≥ 150 µM

Q: What about the “lamellipodia dynamics (frequencies of protrusion and retraction)” value (B16.F10 cells [2]) of the same molecule?
A: attenuated dynamics (p<0.05) of lamellipodia protrusion and retraction

Q: What about the lamellipodia retraction velocity (B16.F10 cells [2]; p<0.05) of the same molecule?
A: slower lamellipodia retraction velocity

Q: And the “LysoPC concentration in culture medium” value (B16.F10 melanoma cells)?
A: not changed in absence of the cells
